Test results taken from patent US8367620B2, “Peptidic growth hormone secretagogues analog compounds and preparations thereof” (Centro de Ingenieria Genetica y Biotecnologia, priority 2006, dated 2013).

Legend:
PC12 cells = type: cell-based; settings: differentiated PC12 cells, 72 h incubation, MTT; read-out: IC50 during the NGF deprivation induced neuronal death
Method: PC12 cells were stored in 75 cm^2 culture flasks on DMEM containing 5% bovine foetal serum and 10% horse serum, with 50 μg/ml gentamicin. Cells were incubated at 37° C. in 5% CO2. To induce differentiation cells were transferred at a density of 1×10^4 to polylysine covered 96 well plates in NGF supplemented DMEM media for 7 days, with medium replacement every 2-3 days. After differentiation cells were incubated with peptidic GHS analog compounds, at different concentrations for 72 h. Cell survival and proliferation was determined using the Promega non-radioactive cytotoxicity proliferation assay, Cell Titer 96, based in the conversion of 3-(4,5-dimethylthiazole-2-yl)-2,5-diphenyltetrazolium bromide (MTT) in to a spectrophotometrically detectable product. After deprivation of NGF medium is removed and 15 μl of the DMEM dissolved dye is added, after 4 hours of 37° C. incubation 100 μl of the stopping solution is added and absorbance is measured at 570 nm

[1] = test system: primary cultures of granular cerebellum cells; type: cell-based, Wistar rats; settings: 500 μM hydrogen peroxide, rat cerebellum granular cells; read-out: IC50 during the induced neuronal damage by Hydrogen Peroxide addition to a primary culture of neurons
Method: Primary cultures of granular cerebellum cells were obtained from 7-9 days Wistar rats. After a rapid dissection, rat cerebellums were submerged in a cold solution and meningeal membranes were removed, each organ was transferred to a 2-3 ml fresh medium solution and finely sliced. Cells were dissociated using a Pasteur pipette and filtered through a nylon […] membrane (Falcon, Franklin Lakes, N.J.). The number of viable cells was determined by cell counting in a hematocytometer with tripan blue as a marker. Cells were cultured on polylysine covered 96 well plates at a density of 6250 cells in […] final volume. Cultures were kept at 37° C. in 5%. CO2 after 24 h, 10 μM of cytosine arabinofuranose (AraC; Sigma) was added to inhibit the proliferation of non-neuronal cells. The capacity of neural damage prevention was tested adding 500 μM hydrogen peroxide in different concentrations of peptidic GHS analog compounds, Cell survival was determined using the Promega non-radioactive cytotoxicity proliferation assay, Cell Titer 96 (Promega).

IGF-I mRNA = IGF-I mRNA in liver and GH level of intraperitoneally injected tilapias; type: in vivo, tilapia; settings: liver of intraperitoneally injected tilapias
Method: IGF-I mRNa was determined in the liver of intraperitoneally injected tilapias monitoring also the GH level time course, showing the peptidic GHS analog compounds as able to stimulate in fish the GH levels in the bloodstream and at incrementing the IGF-I mRNA levels after the injection of the compounds as shown in table 4.

tilapias = assay: Growth acceleration on juvenile tilapias treated intraperitoneally; type: in vivo; settings: juvenile tilapia, ip 0.1 μg/g twice a week, three weeks
Method: The compounds were dissolved in a sodium phosphate (PBS) buffer solution and injected twice a week, during three weeks at 0.1 μg/g of humid fish weight (gbw). Compounds were applied individually to a group of 10 male tilapias with an average weight of 60.41±10.36 g and a control group with an average weight of 60.58±19.67 g was receiving PBS only as a control, measuring the average weight every week, all animals in the experiment were labelled with microchips (Stoelting Co. Wood Dale, USA.). for proper identification.

[2] = test system: tilapia Oreochromis sp. larvae; assay: Growth stimulation of tilapia larvae by immersion; type: in vivo; settings: immersion 100 μg/L, one hour twice a week, three weeks
Method: (§1) Growth stimulation experiments on tilapia Oreochromis sp. larvae were performed evaluating groups of 100 larvae with 0.01 g average, using the peptidic GHS analogs, in a 100 μg/L concentration, twice a week using an immersion time of one hour.

lysozyme = assay: Lysozyme levels in tilapia larvae treated by immersion; type: in vivo, Oreochromis sp.; settings: immersion 100 μg/L
Method: as §1
During this experiment lysozyme levels were also monitored and an increase of this immunity marker was obtained in the treated animals as shown in table 8.

Litopenaeus vanamei = assay: Growing of shrimp larvae by dipping in solution of the compounds; type: in vivo; settings: four dips of one hour every three days, 0.1 g/L
Method: Shrimp larvae were subjected two four dips, for one hour every three days with different peptidic GHS analogs at 0.1 g/L. The control group was subjected to the same frequency of dipping with 1 mg/L BSA.

[3] = test system: Post-larvae of Litopenaeus vanamei; assay: Growth stimulation in shrimps by dietary supplementation; type: in vivo; settings: compound at 1% in post-larvae crustacean diet
Method: The peptidic GHS analogs were included at 1% in a post-larvae crustacean diet. Post-larvae of Litopenaeus vanamei were fed with the aforementioned diet in parallel with a control group with 1% BSA addition. The effect was measured with an optical micrometer and weighing the animals in a 0.1 mg precision scale.

[4] = test system: Litopenaeus vanamei post-larvae; assay: Growth of shrimp post-larvae fed Artemia-bioencapsulated compounds; type: in vivo; settings: Artemia bioencapsulated (10 mh/L, one hour), fed four times a day for one month
Method: The peptidic GHS analogs were bioencapsulated in Artemia to be fed to Litopenaeus vanamei post-larvae. For the encapsulation the compounds were added in a 10 mh/L left for an hour, harvested and washed. The animals were fed four times a day for one month while the control group was fed with BSA encapsulated Artemia The effect was measured with an optical micrometer and weighing the animals in a 0.1 mg precision scale.

Sequence | IC50 (PC12 cells) [µM] | IC50 [1] [µM] | Normalized IGF-I mRNA levels to a non related synthetic peptide control group (IGF-I mRNA) | Weight Inc. (%), control group growing = 100% (tilapias) [%] | Weight Inc. (%), control group growing = 100% [2] [%] | Lysozyme levels of the treated animals relative to the control group (lysozyme) | Size Inc. (%), control group growing = 100% (Litopenaeus vanamei) [%] | Weight Inc. (%), control group growing = 100% (Litopenaeus vanamei) [%] | Size Inc. (%), control group growing = 100% [3] [%] | Size Inc. (%), control group growing = 100% [4] [%]
ALDFKPNIP [Compound A225, L-amino acid peptide with internal side-chain cycle, SEC; ID NO: 5] | 4.07 | 3.99 | 1.38 | 120.0 | 98.0 | 1.43 | 112.6 | 121.0 | 130.0 | 130.0
GDAGAKLLSSR [Compound A234] | 5.86 | 3.72 | 1.17 | 110.6 | 120.6 | 2.77 | 114.2 | 123.6 | 138.6 | 135.0
GEGYKLDERSQ [Compound A236, L-amino acid peptide with internal side-chain cycle, SEC; ID NO: 16] | 3 | 3.33 | 1.13 | 99.0 | 105.0 | 1.42 | 112.0 | 121.0 | 137.0 | 138.0
GGEAGKLCPPRY [Compound A237, L-amino acid peptide with internal side-chain cycle, SEC; ID NO: 17] | 3.33 | 2.51 | 1.201 | 100.0 | 109.9 | 1.01 | 116.2 | 127.0 | 132.0 | 136.0
GGGKFWDIPHH [Compound A231, L-amino acid peptide with internal side-chain cycle, SEC; ID NO: 11] | 4 | 3.46 | 1.39 | 150.2 | 151.0 | 1.89 | 123.0 | 130.0 | 140.1 | 140.2
GKFDSPEHQ [Compound A230] | 4.06 | 3.81 | 1.48 | 158.0 | 150.0 | 1.33 | 123.6 | 150.0 | 140.0 | 140.0
